For orientation: Ki means the equilibrium dissociation constant of an inhibitor or competing ligand from its target. For orientation: inhibition means the relative decrease from the control value, in per cent. The IC50 is the point on the concentration scale where inhibition reaches its midpoint.

Series [1] addresses Leukotriene B4 receptor 1 (Homo sapiens, UniProt Q15722). Briefly: Binding assay (LTB4R ).
Series [2] addresses Voltage-gated L-type calcium channel (verapamil site) (Homo sapiens, UniProt O60840+Q01668+Q13698+Q13936). Put plainly: Ca2+ channel (L, verapamil site) CEREP ligand profiling. The series is classed as protein assay. The note with it: compound concentration 10 uM.
For series [3], the target named is D(2) dopamine receptor (Homo sapiens) (UniProt P14416). Put plainly: D2S (h) CEREP ligand profiling. The note with it: Compound concentration 10.0 uM.
The target in series [4] is Sodium- and chloride-dependent GABA transporter 1 (Homo sapiens) (UniProt P30531). Put plainly: GABA transporter CEREP ligand profiling. The note with it: Compound concentration 10.0 uM.
The target of series [5] is Histamine H3 receptor (Homo sapiens) (UniProt Q9Y5N1). Put plainly: H3 (h) CEREP ligand profiling. The note with it: Compound concentration 10.0 uM.
Series [6] deals with T1, Muscarinic acetylcholine receptor M1 (Homo sapiens) (UniProt P11229).
T1 sequence (whole entry): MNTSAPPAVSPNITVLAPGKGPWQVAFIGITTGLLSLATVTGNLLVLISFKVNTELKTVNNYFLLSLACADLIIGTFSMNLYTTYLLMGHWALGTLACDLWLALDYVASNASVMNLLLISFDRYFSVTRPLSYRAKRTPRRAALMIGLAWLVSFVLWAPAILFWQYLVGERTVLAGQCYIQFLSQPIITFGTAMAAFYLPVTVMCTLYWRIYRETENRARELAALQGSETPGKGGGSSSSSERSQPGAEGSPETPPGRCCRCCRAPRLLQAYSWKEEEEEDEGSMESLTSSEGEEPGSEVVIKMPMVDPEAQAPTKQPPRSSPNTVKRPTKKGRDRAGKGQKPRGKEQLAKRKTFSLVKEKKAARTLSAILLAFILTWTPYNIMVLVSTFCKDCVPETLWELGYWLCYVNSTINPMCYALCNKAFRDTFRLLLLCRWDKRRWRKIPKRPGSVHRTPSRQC
Put plainly: M1 (h) CEREP ligand profiling. The note with it: Compound concentration 10.0 uM.

In series [7] the target is Melanocortin receptor 4 (Homo sapiens) (UniProt P32245). Put plainly: MC4 (h) CEREP ligand profiling. The note with it: Compound concentration 10.0 uM.
For series [8], the target named is Ribosyldihydronicotinamide dehydrogenase [quinone] (Homo sapiens) (UniProt P16083). Briefly: (§1) ML2 (MT3) CEREP ligand profiling. The note with it: Compound concentration 10.0 uM.
In series [9] the target is Ribosyldihydronicotinamide dehydrogenase [quinone] (Homo sapiens, UniProt P16083). The series is described as §1.
In series [10] the target is Mitogen-activated protein kinase 14 (Homo sapiens) (UniProt Q16539). Briefly: p38 alpha kinase (h) CEREP ligand profiling. The note with it: Compound concentration 10.0 uM.
The target in series [11] is Peroxisome proliferator-activated receptor gamma (Homo sapiens) (UniProt P37231). Briefly: PPAR gamma (h) CEREP ligand profiling. The note with it: Compound concentration 10.0 uM.
Series [12] addresses Tyrosine-protein kinase ZAP-70 (Homo sapiens) (UniProt P43403). Put plainly: ZAP70 kinase (h) CEREP ligand profiling. The note with it: Compound concentration 10.0 uM.
The subject of series [13] is Tyrosine-protein kinase ABL1 (Homo sapiens), P00519 [M351T]. The note with it: Compound concentration 1000.0 nM.
Series [14] has as its target RAC-gamma serine/threonine-protein kinase (Homo sapiens) (UniProt Q9Y243). The note with it: Compound concentration 1000.0 nM.
The target in series [15] is Peripheral plasma membrane protein CASK (Homo sapiens) (UniProt O14936). The note with it: Compound concentration 1000.0 nM.
In series [16] the target is Cyclin-dependent kinase-like 3 (Homo sapiens) (UniProt Q8IVW4). The note with it: Compound concentration 1000.0 nM.
For series [17], the target named is Cyclin-dependent kinase-like 5 (Homo sapiens) (UniProt O76039). The note with it: Compound concentration 1000.0 nM.
The target in series [18] is Serine/threonine-protein kinase Chk2 (Homo sapiens) (UniProt O96017). The note with it: Compound concentration 1000.0 nM.
Series [19] has as its system Epidermal growth factor receptor (Homo sapiens), P00533 [UNDEFINED MUTATION]. The note with it: Compound concentration 1000.0 nM.
The target of series [20] is Ephrin type-A receptor 1 (Homo sapiens) (UniProt P21709). The note with it: Compound concentration 1000.0 nM.
Series [21] addresses Mitogen-activated protein kinase 1 (Homo sapiens) (UniProt P28482). The note with it: Compound concentration 1000.0 nM.
The target of series [22] is Vascular endothelial growth factor receptor 3 (Homo sapiens) (UniProt P35916). The note with it: Compound concentration 1000.0 nM.
In series [23] the target is G protein-coupled receptor kinase 3 (Homo sapiens) (UniProt P35626). The note with it: Compound concentration 1000.0 nM.
Series [24] addresses Rhodopsin kinase GRK7 (Homo sapiens) (UniProt Q8WTQ7). The note with it: Compound concentration 1000.0 nM.
Series [25] addresses Tyrosine-protein kinase Lyn (Homo sapiens) (UniProt P07948). The note with it: Compound concentration 1000.0 nM.
Series [26] concerns the target Muscle, skeletal receptor tyrosine-protein kinase (Homo sapiens) (UniProt O15146). The note with it: Compound concentration 1000.0 nM.
In series [27] the target is Serine/threonine-protein kinase Nek4 (Homo sapiens) (UniProt P51957). The note with it: Compound concentration 1000.0 nM.
Series [28] deals with Cyclin-dependent kinase 18 (Homo sapiens) (UniProt Q07002). The note with it: Compound concentration 1000.0 nM.
For series [29], the system named is Phosphatidylinositol 4,5-bisphosphate 3-kinase catalytic subunit alpha isoform (Homo sapiens), P42336 [E542K]. The note with it: Compound concentration 1000.0 nM.
The target of series [30] is Serine/threonine-protein kinase pim-1 (Homo sapiens) (UniProt P11309). The note with it: Compound concentration 1000.0 nM.
Series [31] deals with Serine/threonine-protein kinase D3 (Homo sapiens) (UniProt O94806). The note with it: Compound concentration 1000.0 nM.
In series [32] the target is cAMP-dependent protein kinase catalytic subunit PRKX (Homo sapiens) (UniProt P51817). The note with it: Compound concentration 1000.0 nM.
Series [33] deals with Serine/threonine-protein kinase RIO3 (Homo sapiens) (UniProt O14730). The note with it: Compound concentration 1000.0 nM.
For series [34], the target named is SRSF protein kinase 2 (Homo sapiens) (UniProt P78362). The note with it: Compound concentration 1000.0 nM.
For series [35], the target named is Testis-specific serine/threonine-protein kinase 3 (Homo sapiens) (UniProt Q96PN8). The note with it: Compound concentration 1000.0 nM.
In series [36] the target is Serine/threonine-protein kinase ULK2 (Homo sapiens) (UniProt Q8IYT8). The note with it: Compound concentration 1000.0 nM.
The target in series [37] is Tyrosine-protein kinase ZAP-70 (Homo sapiens) (UniProt P43403). The note with it: Compound concentration 1000.0 nM.
In series [38] the target is Acetylcholine receptor, muscle-type, subunit alpha-1 (Homo sapiens) (UniProt P02708). Briefly: N (muscle-type) (h) CEREP ligand profiling. The note with it: Compound concentration 10.0 uM.
For a further series, the target named is D(1A) dopamine receptor (Homo sapiens, UniProt P21728). Briefly: GPCRScan assay: inhibition of D1. Further details: radioligand conc. used [nm] 0.6 – 1.3, parental cells HEKT.

Tyrosine-protein kinase ZAP-70 (Homo sapiens), sequence (P43403 whole entry): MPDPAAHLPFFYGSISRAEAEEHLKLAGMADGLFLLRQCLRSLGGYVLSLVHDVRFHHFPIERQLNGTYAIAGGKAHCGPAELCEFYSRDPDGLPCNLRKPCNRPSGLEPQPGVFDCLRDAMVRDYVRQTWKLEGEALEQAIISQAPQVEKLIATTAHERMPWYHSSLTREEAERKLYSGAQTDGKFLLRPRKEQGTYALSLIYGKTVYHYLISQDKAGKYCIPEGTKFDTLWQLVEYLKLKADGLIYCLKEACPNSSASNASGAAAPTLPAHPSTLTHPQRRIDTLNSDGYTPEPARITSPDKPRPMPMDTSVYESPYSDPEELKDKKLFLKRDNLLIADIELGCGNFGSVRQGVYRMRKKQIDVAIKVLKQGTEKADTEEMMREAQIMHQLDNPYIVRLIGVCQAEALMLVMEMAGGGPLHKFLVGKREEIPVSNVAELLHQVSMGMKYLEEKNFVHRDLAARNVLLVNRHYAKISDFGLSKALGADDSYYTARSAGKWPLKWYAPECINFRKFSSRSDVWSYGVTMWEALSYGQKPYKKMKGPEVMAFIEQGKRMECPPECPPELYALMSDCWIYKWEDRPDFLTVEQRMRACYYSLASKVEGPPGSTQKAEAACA
Ribosyldihydronicotinamide dehydrogenase [quinone], sequence (P16083 whole entry): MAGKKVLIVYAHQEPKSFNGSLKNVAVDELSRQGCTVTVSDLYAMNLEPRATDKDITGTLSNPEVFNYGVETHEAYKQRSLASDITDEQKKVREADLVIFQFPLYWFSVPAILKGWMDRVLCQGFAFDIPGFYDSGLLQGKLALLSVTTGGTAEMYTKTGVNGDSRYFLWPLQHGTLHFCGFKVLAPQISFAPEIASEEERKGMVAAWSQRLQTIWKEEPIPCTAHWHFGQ
Testis-specific serine/threonine-protein kinase 3 (Homo sapiens), sequence (Q96PN8 whole entry): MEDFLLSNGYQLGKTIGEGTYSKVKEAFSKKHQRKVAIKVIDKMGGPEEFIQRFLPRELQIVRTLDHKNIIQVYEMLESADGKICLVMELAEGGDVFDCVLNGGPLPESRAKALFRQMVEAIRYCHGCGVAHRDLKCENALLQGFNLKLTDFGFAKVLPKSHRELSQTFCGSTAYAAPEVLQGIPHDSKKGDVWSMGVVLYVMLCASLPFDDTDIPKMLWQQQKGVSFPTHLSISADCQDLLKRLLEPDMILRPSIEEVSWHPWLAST
Tyrosine-protein kinase Lyn (Homo sapiens), sequence (P07948 2-512 limits assumed): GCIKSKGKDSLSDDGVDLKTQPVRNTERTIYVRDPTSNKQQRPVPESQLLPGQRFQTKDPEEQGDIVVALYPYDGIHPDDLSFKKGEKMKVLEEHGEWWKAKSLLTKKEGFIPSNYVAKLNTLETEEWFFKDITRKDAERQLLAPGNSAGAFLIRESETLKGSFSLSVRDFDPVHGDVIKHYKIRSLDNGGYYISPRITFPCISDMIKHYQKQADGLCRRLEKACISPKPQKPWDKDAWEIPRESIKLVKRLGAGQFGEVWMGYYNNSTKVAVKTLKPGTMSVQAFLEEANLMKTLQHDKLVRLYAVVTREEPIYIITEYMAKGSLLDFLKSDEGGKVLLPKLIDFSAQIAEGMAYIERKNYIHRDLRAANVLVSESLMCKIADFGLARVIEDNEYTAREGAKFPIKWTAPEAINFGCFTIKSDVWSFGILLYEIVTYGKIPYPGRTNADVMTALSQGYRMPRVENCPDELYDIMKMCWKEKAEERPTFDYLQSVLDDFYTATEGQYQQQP
Cyclin-dependent kinase-like 3 (Homo sapiens), sequence (Q8IVW4 whole entry, looked up): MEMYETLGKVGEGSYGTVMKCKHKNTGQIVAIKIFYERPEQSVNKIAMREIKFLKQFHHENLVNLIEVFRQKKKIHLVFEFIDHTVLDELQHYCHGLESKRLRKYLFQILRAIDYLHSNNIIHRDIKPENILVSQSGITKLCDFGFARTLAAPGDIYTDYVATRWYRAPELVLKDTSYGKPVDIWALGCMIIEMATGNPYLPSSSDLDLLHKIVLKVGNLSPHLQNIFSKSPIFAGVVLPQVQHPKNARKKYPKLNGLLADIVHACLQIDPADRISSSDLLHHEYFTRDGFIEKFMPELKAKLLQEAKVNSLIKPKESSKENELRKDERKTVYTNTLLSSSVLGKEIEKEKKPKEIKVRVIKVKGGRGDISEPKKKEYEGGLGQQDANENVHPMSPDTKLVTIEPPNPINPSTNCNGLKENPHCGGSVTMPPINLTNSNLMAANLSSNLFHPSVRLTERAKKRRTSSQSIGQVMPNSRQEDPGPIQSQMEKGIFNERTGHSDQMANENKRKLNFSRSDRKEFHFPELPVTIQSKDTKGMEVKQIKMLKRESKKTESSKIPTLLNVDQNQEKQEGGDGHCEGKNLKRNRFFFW
Acetylcholine receptor, muscle-type, subunit alpha-1 (Homo sapiens), sequence (P02708 whole entry, looked up): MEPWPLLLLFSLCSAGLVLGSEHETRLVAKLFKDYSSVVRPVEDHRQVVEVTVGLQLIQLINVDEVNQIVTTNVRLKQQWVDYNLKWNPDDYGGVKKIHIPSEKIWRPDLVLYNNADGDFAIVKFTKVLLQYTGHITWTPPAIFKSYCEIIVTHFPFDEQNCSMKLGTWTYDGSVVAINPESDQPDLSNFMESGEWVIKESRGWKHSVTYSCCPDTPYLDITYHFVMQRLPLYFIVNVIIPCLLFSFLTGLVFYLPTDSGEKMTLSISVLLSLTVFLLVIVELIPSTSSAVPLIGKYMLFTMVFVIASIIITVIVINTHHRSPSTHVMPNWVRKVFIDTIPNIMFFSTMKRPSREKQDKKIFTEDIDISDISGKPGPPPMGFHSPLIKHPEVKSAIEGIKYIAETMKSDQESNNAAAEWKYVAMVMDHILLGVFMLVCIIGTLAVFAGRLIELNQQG
Muscle, skeletal receptor tyrosine-protein kinase (Homo sapiens), sequence (O15146 whole entry): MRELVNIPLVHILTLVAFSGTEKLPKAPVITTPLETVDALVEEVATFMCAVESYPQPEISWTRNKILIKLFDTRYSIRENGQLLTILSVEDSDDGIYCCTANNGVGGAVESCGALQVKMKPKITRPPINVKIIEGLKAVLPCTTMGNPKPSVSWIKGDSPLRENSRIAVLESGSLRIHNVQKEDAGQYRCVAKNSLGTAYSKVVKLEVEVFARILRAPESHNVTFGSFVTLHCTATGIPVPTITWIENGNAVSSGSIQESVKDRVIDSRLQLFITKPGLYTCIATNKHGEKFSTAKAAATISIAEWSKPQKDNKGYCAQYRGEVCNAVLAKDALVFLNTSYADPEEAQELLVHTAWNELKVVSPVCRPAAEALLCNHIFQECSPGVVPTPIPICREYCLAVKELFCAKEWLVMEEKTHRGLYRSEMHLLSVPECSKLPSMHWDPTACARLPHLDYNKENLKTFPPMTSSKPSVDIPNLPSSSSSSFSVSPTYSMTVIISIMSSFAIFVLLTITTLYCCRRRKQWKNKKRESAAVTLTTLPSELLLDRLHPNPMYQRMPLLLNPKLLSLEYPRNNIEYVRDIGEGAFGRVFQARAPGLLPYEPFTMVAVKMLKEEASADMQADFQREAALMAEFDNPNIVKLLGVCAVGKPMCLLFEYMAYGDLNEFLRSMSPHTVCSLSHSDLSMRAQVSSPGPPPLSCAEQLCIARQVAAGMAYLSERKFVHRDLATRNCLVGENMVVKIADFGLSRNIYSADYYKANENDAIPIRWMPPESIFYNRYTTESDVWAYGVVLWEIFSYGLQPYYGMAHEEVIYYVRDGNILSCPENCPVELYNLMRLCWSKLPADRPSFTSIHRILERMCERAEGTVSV
Peroxisome proliferator-activated receptor gamma (Homo sapiens), sequence (P37231 whole entry): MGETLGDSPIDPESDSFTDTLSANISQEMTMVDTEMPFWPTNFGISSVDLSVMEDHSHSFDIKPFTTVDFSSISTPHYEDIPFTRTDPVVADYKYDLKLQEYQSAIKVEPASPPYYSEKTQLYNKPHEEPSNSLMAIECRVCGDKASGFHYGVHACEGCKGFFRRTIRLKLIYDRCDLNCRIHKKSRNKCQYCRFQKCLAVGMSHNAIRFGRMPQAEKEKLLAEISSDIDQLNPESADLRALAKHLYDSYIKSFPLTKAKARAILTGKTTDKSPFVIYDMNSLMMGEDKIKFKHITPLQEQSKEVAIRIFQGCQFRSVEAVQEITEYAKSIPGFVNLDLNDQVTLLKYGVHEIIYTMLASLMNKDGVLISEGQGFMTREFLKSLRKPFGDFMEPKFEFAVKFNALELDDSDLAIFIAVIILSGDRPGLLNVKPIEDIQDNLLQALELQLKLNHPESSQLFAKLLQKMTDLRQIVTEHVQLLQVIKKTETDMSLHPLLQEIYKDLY
RAC-gamma serine/threonine-protein kinase (Homo sapiens), sequence (Q9Y243 whole entry): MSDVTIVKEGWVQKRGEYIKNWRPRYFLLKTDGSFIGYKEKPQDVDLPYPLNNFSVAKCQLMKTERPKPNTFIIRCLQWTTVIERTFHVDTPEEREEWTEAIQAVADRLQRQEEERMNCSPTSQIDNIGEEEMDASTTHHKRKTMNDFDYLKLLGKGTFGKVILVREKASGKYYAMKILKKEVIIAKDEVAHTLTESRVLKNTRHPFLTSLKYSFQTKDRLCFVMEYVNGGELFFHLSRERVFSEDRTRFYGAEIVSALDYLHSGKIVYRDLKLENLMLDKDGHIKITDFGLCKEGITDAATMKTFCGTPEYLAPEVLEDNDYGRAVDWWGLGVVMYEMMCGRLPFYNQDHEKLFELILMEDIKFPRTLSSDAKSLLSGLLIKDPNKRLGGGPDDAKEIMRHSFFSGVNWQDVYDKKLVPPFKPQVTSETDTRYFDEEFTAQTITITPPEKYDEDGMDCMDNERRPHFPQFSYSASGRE
Leukotriene B4 receptor 1, sequence (Q15722 whole entry): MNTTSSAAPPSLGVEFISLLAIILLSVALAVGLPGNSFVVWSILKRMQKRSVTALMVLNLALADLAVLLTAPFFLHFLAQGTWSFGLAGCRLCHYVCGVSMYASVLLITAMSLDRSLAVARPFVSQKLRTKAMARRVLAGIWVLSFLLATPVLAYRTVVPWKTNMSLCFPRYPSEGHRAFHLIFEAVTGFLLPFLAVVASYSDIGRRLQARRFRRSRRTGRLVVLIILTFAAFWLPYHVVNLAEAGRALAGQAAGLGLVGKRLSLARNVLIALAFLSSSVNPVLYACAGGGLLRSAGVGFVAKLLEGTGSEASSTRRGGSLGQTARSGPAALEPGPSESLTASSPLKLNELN

Take `COc1ccc2cc(OCC3(C(=O)O)CN(C(=O)c4ccc(F)cc4)C3)ccc2c1` [PF-04418948]: the Ki in series [1] is 4800 nM (not active); in series [9] it was 520 nM. Further, the inhibition at 10 µM in series [2] is listed as -5% (not active). The inhibition in [3] is -2%; in series [4], 14%; in series [5], 10%; in [6], 9%; in series [7], 8%; in series [8] it was 93%. Besides, the inhibition in series [10] is -1%; in series [11], 14%; in series [12], 9%; in series [38], -10%. In series [9], this molecule gave a half-maximal inhibitory concentration (IC50) of 530 nM. Further, the residual activity in series [13] is 87%; in series [14], 88%; in series [15] it was 91%; in series [16], 89%; in [17] it was 97%; in series [18], 93%. Further, the residual activity in series [19] is 87%; in series [20] it was 83%; in series [21], 97%; in [22] it was 75%; in series [23], 67%; in series [24], 93%. Further, the residual activity is 85% in series [25]; 72% in series [26]; 94% in series [27]; 98% in [28]; 50% in [29]; 96% in series [30]. The residual activity was 91% in series [31]; 90% in series [32]; 97% in series [33]; 84% in series [34]; 82% in series [35]; 89% in series [36]. Moreover, the residual activity in series [37] was 99%.
With `O=C(c1ccc(F)cc1)N1CC(COc2ccc(Br)cc2)(C(=O)O)C1` [PF-04475866], on D(1A) dopamine receptor, the inhibition constant Ki amounted to 10000 nM.
